This test concerns the target T1, human GIP receptor (Homo sapiens, UniProt P48546).
T1 construct: host or cells: HEK-293 cells, transient transfection (Lipofectamine 2000), cDNA in pCMV-Script vector
T1 sequence (P48546 22-466): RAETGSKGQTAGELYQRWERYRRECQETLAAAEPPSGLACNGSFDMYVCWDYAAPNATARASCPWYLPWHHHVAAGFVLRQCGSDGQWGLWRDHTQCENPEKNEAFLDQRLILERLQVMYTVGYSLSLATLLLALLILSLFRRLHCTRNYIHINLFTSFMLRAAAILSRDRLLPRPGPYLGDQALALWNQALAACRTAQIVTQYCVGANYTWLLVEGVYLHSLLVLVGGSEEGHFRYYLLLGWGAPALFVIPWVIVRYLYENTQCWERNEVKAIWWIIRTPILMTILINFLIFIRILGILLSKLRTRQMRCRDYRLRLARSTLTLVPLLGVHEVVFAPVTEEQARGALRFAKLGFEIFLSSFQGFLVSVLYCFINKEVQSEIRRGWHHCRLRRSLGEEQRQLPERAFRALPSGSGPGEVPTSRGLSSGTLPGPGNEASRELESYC
Put plainly: cAMP assay Alternative 1 (CisBio assay), GIPR antagonism. The format is cell-based. Particulars: Table 2B; % inhibition of Emax. The protocol: HEK293 cells were cultured in 10% CO2 and 37° C. in Dulbecco's modified Eagle's medium supplemented with 10% fetal bovine serum, 2 mM glutamine, 180 units/ml penicillin, and 45 µg/ml streptomycin. Transient transfection with hGIPR for the CisBio assay from Table 2C was performed by using Lipofectamine 2000.
The in vitro functional activity of compounds towards human GIP receptor can also be determined in HEK-293 cells transiently expressing the receptor. On the day of the assay, cells were resuspended in HBSS buffer (Gibco, 14025-50) supplemented with […] (Gibco, 15630-106), 0.1% Pluronic F-68 (Gibco, 24040-032) and 0.1% casein (Sigma, C4765), and plated in 384-well plates at a density of 5000 cells/well. The GIP peptide analogues of the present disclosure were diluted in HBSS buffer supplemented with 20 mM HEPES, 0.1% pluronic, 0.1% casein and 500 uM IBMX. […] The resulting decrease in intracellular cAMP was quantitatively determined using the CisBio cAMP Dynamic 2 HTRF Assay Kit. The assay is based on a competition between native cAMP produced by cells and cAMP labeled with the dye d2 for binding to a cryptate labeled antibody. The specific signal (i.e. energy transfer signal) is inversely proportional to the concentration of cAMP in the sample.
The cAMP-d2 conjugate and the antibody anti-cAMP-Cryptate, both diluted in lysis buffer provided in the kit, were added to the cells according to the manufacturer's protocol. The resulting competitive assay was incubated for 60 minutes at room temperature, and the signal was detected by using a PerkinElmer Envision® instrument with excitation at 320 nm and emission at 665 nm and 620 nm. The HTRF ratio (emission at 665 nm/620 nm*10,000) is inversely proportional to the amount of cAMP present and is converted to nM cAMP per well using a cAMP standard curve. The dose-response curves were fitted using the non-linear regression analysis (four-logistic parameter equation) in GraphPad Prism, whereby pIC50 values were estimated. To test for agonistic properties at the GIP receptor, compounds were diluted and added to cells as described above and incubated for 30 min at 37° C. The resulting increase in intracellular cAMP was determined using the CisBio cAMP Dynamic 2 HTRF Assay Kit as described above.
The dose-response curves were fitted using the non-linear regression analysis (four-logistic parameter equation) in GraphPad Prism, whereby pIC50 values were estimated.

Starred links: 1 amine or outer side, 2 acyl side, 3 side chain; linkers in the order of their positions; H or OH if unused. Non-standard residues stand in square brackets, D forms with d. Residues, ends and D or L forms follow the SMILES beside them. Groups on a side chain read outwards from the residue. *: point of attachment. C18 diacid = O=C(O)CCCCCCCCCCCCCCCCC(=O)*; C16 diacid = O=C(O)CCCCCCCCCCCCCCC(=O)*; γGlu = O=C(O)[C@H](CCC(=O)[*:2])N[*:1]; Glutaryl = O=C(CCCC(=O)[*:2])[*:1]; Nle = CCCC[C@H](N)C(=O)O; AEEA = NCCOCCOCC(=O)O; Aib = CC(C)(N)C(=O)O

As for `CC[C@H](C)[C@H](NC(=O)[C@H](CO)NC(=O)[C@H](Cc1ccc(O)cc1)NC(=O)[C@H](CCC(=O)O)NC(=O)[C@H](CO)NC(=O)[C@@H](NC(=O)[C@H](Cc1ccccc1)NC(=O)[C@@H](NC(=O)CNC(=O)[C@@H](N)CCC(=O)O)[C@@H](C)O)[C@@H](C)CC)C(=O)N[C@@H](C)C(=O)N[C@@H](CCSC)C(=O)N[C@@H](CCC(=O)O)C(=O)N[C@@H](CCCCN)C(=O)N[C@H](C(=O)N[C@@H](CCCCNC(=O)CCCCCCCCCCCCCCC(=O)O)C(=O)N[C@@H](CCC(N)=O)C(=O)N[C@@H](CCC(N)=O)C(=O)N[C@@H](CCC(=O)O)C(=O)N[C@@H](Cc1ccccc1)C(=O)N[C@H](C(=O)N[C@@H](CCC(=O)O)C(=O)N[C@@H](Cc1c[nH]c2ccccc12)C(=O)N[C@@H](CC(C)C)C(=O)N[C@@H](CC(C)C)C(=O)N[C@@H](C)C(=O)N[C@@H](CCC(N)=O)C(=O)N[C@@H](CCCCN)C(=O)N1CCC[C@H]1C(=O)N[C@@H](CO)C(=O)N[C@@H](CO)C(=O)NCC(=O)N[C@@H](C)C(=O)N1CCC[C@H]1C(=O)N1CCC[C@H]1C(=O)N1CCC[C@H]1C(=O)N[C@@H](CO)C(=O)O)C(C)C)[C@@H](C)CC` [AT614] (H-EGTFISEYSIAMEKIK(C16 diacid)QQEFVEWLLAQKPSSGAPPPS-OH; N-terminus assumed), the “cAMP antagonism % inhib” value is listed as 100%.
In the case of `CC[C@H](C)[C@H](NC(=O)[C@H](CO)NC(=O)[C@H](Cc1ccc(O)cc1)NC(=O)[C@H](CC(=O)O)NC(=O)[C@H](CO)NC(=O)[C@@H](NC(=O)[C@H](Cc1ccccc1)NC(=O)[C@@H](NC(=O)CNC(=O)[C@@H](N)CCC(=O)O)[C@@H](C)O)[C@@H](C)CC)C(=O)N[C@@H](C)C(=O)N[C@@H](CC(C)C)C(=O)N[C@@H](CC(=O)O)C(=O)N[C@@H](CCCCN)C(=O)N[C@H](C(=O)N[C@@H](CCCCNC(=O)COCCOCCNC(=O)COCCOCCNC(=O)CC[C@H](NC(=O)CCCCCCCCCCCCCCCCC(=O)O)C(=O)O)C(=O)N[C@@H](CCC(N)=O)C(=O)N[C@@H](CCC(N)=O)C(=O)N[C@@H](CC(=O)O)C(=O)N[C@@H](Cc1ccccc1)C(=O)N[C@H](C(=O)N[C@@H](CCC(=O)O)C(=O)N[C@@H](Cc1c[nH]c2ccccc12)C(=O)N[C@@H](CC(C)C)C(=O)N[C@@H](CC(C)C)C(=O)N[C@@H](C)C(=O)N[C@@H](CCC(N)=O)C(=O)N[C@@H](CCCCN)C(=O)N1CCC[C@H]1C(=O)N[C@@H](CO)C(=O)N[C@@H](CO)C(=O)NCC(=O)N[C@@H](C)C(=O)N1CCC[C@H]1C(=O)N1CCC[C@H]1C(=O)N1CCC[C@H]1C(=O)N[C@@H](CO)C(=O)O)C(C)C)[C@@H](C)CC` [AT682] (H-EGTFISDYSIALDKIK([AEEA-AEEA-γGlu-C18 diacid])QQDFVEWLLAQKPSSGAPPPS-OH; N-terminus assumed) it was 89%.
With `CCCC[C@H](NC(=O)C(C)(C)NC(=O)[C@@H](NC(=O)[C@H](CO)NC(=O)[C@H](Cc1ccc(O)cc1)NC(=O)[C@H](CC(=O)O)NC(=O)[C@H](CO)NC(=O)[C@@H](NC(=O)[C@H](Cc1ccccc1)NC(=O)[C@@H](NC(=O)CNC(=O)[C@@H](N)CCC(=O)O)[C@@H](C)O)[C@@H](C)CC)[C@@H](C)CC)C(=O)N[C@@H](CC(=O)O)C(=O)N[C@@H](CCCCN)C(=O)N[C@H](C(=O)N[C@@H](CCCCNC(=O)CCCCCCCCCCCCCCC(=O)O)C(=O)N[C@@H](CCC(N)=O)C(=O)N[C@@H](CCC(N)=O)C(=O)N[C@@H](CC(=O)O)C(=O)N[C@@H](Cc1ccccc1)C(=O)N[C@H](C(=O)N[C@@H](CCC(=O)O)C(=O)N[C@@H](Cc1c[nH]c2ccccc12)C(=O)N[C@@H](CC(C)C)C(=O)N[C@@H](CC(C)C)C(=O)N[C@@H](C)C(=O)N[C@@H](CCC(N)=O)C(=O)N[C@@H](CCCCN)C(=O)N1CCC[C@H]1C(=O)N[C@@H](CO)C(=O)N[C@@H](CO)C(=O)NCC(=O)N[C@@H](C)C(=O)N1CCC[C@H]1C(=O)N1CCC[C@H]1C(=O)N1CCC[C@H]1C(=O)N[C@@H](CO)C(=O)O)C(C)C)[C@@H](C)CC` [AT667] (H-EGTFISDYSI[Aib][Nle]DKIK(C16 diacid)QQDFVEWLLAQKPSSGAPPPS-OH; N-terminus assumed) the figure was 86%; with `CCCC[C@H](NC(=O)[C@H](C)NC(=O)[C@@H](NC(=O)[C@H](CO)NC(=O)[C@H](Cc1ccc(O)cc1)NC(=O)[C@H](CC(=O)O)NC(=O)[C@H](CO)NC(=O)[C@@H](NC(=O)[C@H](Cc1ccccc1)NC(=O)[C@@H](NC(=O)CNC(=O)CCCC(=O)O)[C@@H](C)O)[C@@H](C)CC)[C@@H](C)CC)C(=O)N[C@@H](CC(=O)O)C(=O)N[C@@H](CCCCN)C(=O)N[C@H](C(=O)N[C@@H](CCCCNC(=O)CCCCCCCCCCCCCCC(=O)O)C(=O)N[C@@H](CCC(N)=O)C(=O)N[C@@H](CCC(N)=O)C(=O)N[C@@H](CC(=O)O)C(=O)N[C@@H](Cc1ccccc1)C(=O)N[C@H](C(=O)N[C@@H](CCC(=O)O)C(=O)N[C@@H](Cc1c[nH]c2ccccc12)C(=O)N[C@@H](CC(C)C)C(=O)N[C@@H](CC(C)C)C(=O)N[C@@H](C)C(=O)N[C@@H](CCC(N)=O)C(=O)N[C@@H](CCCCN)C(=O)N1CCC[C@H]1C(=O)N[C@@H](CO)C(=O)N[C@@H](CO)C(=O)NCC(=O)N[C@@H](C)C(=O)N1CCC[C@H]1C(=O)N1CCC[C@H]1C(=O)N1CCC[C@H]1C(=O)N[C@@H](CO)C(=O)O)C(C)C)[C@@H](C)CC` [AT700] (Glutaryl-GTFISDYSIA[Nle]DKIK(C16 diacid)QQDFVEWLLAQKPSSGAPPPS-OH), 89%.

The values above are taken from US20230416330A1, “Optimized GIP Peptide Analogues” (Antag Therapeutics ApS, priority 2019, published 2023).
